Source: US20260226101A1, “PEPTIDE WITH ANTI-INFLAMMATORY AND ANTI-MICROBIAL ACTIVITY” (priority 2023, published 2026)
Ends that are not written are not given here.

Experiments:
BALB/C mice = experiment: Acute toxicity study, single dose; assay type: in vivo
Description: Once after acclimation period, a total of forty mice for IV route of administration, forty mice (half male and half female)/route were randomized based on bodyweight divided into four groups (10 in each group/per route, in each group 5 per sex) per strain via IV route of administration; prior to dosing initiation (table 12). On the day of dosing (designated as Day 0 of the study), the mice were 6 weeks old, and their body weights ranged from 20 to 25 g. The dosing volume was 0.1 ml per mice and the actual volume of peptide IS 111 solution administered was calculated based on body weight measurements obtained on the day of administration and was administered IV in increasing doses of the synthetic test peptide IS 111 0.6, 2.4, & 4.8 mg/kg; (administration once). The routes of administration were the same proposed for use in humans [Food and Drug Administration, 1988]. Prior to dosing the animals were deprived of food for 12 hours but had free access to drinking water. […]
After a single dose administration, mortality and clinical signs associated with toxicity were observed and recorded daily for consecutive two weeks; body weight changes were measured before and after administration on the 14th day. The animals were observed frequently during the first 4-6-hour period following dose administration and once daily, thereafter, for […], during which animals were evaluated for mortality, clinical signs of toxicity, and behavior. […] The number of animals killed for each of the doses was noted and the LD50 calculated by the Up and Down method, which is one of the most used to reduce the number of animals used [P. A. Botham, 2004]. […]
The mortality, general health status, and toxic reaction symptoms of the experimental groups were documented. Before the first day of IS 111 administration and during the experiments, a detailed clinical observation was carried out and recorded the changes in skin, eyes and mucous membrane, respiratory system, nervous system, activity, and behaviors of the […]. The body weight was measured and recorded before the first day of administration.

[1] = test system: E. coli ATCC 8739-induced septic peritonitis; experiment: E. coli-induced septic peritonitis model; assay type: in vivo, BALB/c mice; settings: administration at 1, 24 and 72 h post injection of E. coli; last time point of 8 h
[2] = test system: Staphylococcus aureus ATCC 6538; experiment: Time-kill assay; assay type: cell-based; settings: S. aureus
Description: The survival of bacteria, time kill efficacy assay of IS 111 was further evaluated for activity against bacterial strain mentioned above according to CLSI reference method, with slightly modification. MICs were determined by broth microdilution assay as described above. […] Test tubes of MHB without test compound IS 111 were used as vehicle controls. Overnight cultures of the bacterial strains at cell densities of approximately 1×10^8 CFU/ml were used to inoculate both test and control tubes. The standard tube dilution method was opted to evaluate the time-kill efficacy of bacteria. Bacterial inoculum (1 mL) was diluted by adding 9 mL sterile saline solution and serially diluted up to 10^−3. […] 100 μL incubated suspension was transferred on the agar plates and spread through the spreader. Colony counts were performed after 24 h incubation at 37° C. Plates with 10-300 colonies were used for these counts, and the kill rate was determined by plotting log 10 viable counts (CFU/ml) against time. Bactericidal activity was defined as a ≥3 log 10 decreases in CFU/ml of the initial microbial population, while bacteriostatic activity was defined was defined as a <3 log 10 decrease in CFU/ml. The assay was performed in triplicate [Olufunmiso O Olajuyigbe et al., 2015; Sutthiwan Thammawat et al., 2017]
The time-kill kinetics antibacterial study of the Peptide IS 111 was carried out to assess the killing rate of the compound within a given contact time. The survival of bacteria, time kill efficacy assay of IS 111 was further evaluated for activity against Escherichia coli ATCC 8739 and Staphylococcus aureus ATCC 6538, Pseudomonas aeruginosa ATCC 9027 and Klebsiella pneumoniae ATCC 700603 according to CLSI reference method, with slightly modification. MICs were determined by broth microdilution assay as described above. […] 10. Test tubes of MHB without test compound Peptide IS 111 were used as vehicle controls. Overnight cultures of the bacterial strains at cell densities of approximately 1×10^6 CFU/ml were used to inoculate both test and control tubes.
After each interval, ten-fold dilutions were prepared with normal saline, and 100 μL incubated suspension was transferred on the agar plates and spread through the spreader. Colony counts were performed after 24 h incubation at 37° C. Plates with 10-300 colonies were used for these counts, and the kill rate was determined by plotting log 10 viable counts (CFU/ml) against time. Bactericidal activity was defined as a ≥3 log 10 decrease in CFU/ml of the initial microbial population, while bacteriostatic activity was defined as a <3 log 10 decrease in CFU/ml. The assay was performed in triplicate. The proportion of cells surviving at 60 min was calculated, as was the mean and standard deviation. Proportions of surviving cells were compared using Student's 2-tailed t-test, assuming unequal variance and differences were considered significant where p≤0.05.

Question: “FAKKFAK [IS 111, Phe-Ala-Lys-Lys-Phe-Ala-Lys]” was tested. Which “Adverse reaction in acute toxicity tests” value (BALB/C mice; any of the concentrations) did it give?
Answer: no adverse reaction

Question: And the Mortality (BALB/C mice; single dose 0.6, 2.4, 4.8 mg/kg, 14 days)?
Answer: No mortality

Question: And the “Body weight and organ weights” value (BALB/C mice; single dose 0.6/2.4/4.8 mg/kg, intravenous)?
Answer: no changes

Question: And the Survival [1]?
Answer: 80%

Question: What about the Viable count ([2]; 0.5 × MIC, 0 h) of the same substance?
Answer: 5.1 ± 0.65 1 × 10^5 CFU/ml

Question: And the Viable count ([2]; 0.5 × MIC, 1 h)?
Answer: 4.6 ± 0.48 1 × 10^5 CFU/ml

Question: What about the Viable count ([2]; 0.5 × MIC, 2 h) of the same substance?
Answer: 3.8 ± 0.68 1 × 10^5 CFU/ml

Question: And the Viable count ([2]; 0.5 × MIC, 3 h)?
Answer: 3.2 ± 0.58 1 × 10^5 CFU/ml

Question: And the Viable count ([2]; 0.5 × MIC, 4 h)?
Answer: 2.5 ± 0.58 1 × 10^5 CFU/ml

Question: And the Viable count ([2]; 0.5 × MIC, 5 h)?
Answer: 2.1 ± 0.43 1 × 10^5 CFU/ml

Question: What about the Viable count ([2]; 0.5 × MIC, 12 h) of the same substance?
Answer: 1.8 ± 0.43 1 × 10^5 CFU/ml

Question: What about the Reduction in viability ([2]; 0.5×MIC (1.56 μg/ml), 24 h) of the same substance?
Answer: 2 log 10 CFU/ml

Question: What about the “Type of activity (bacteriostatic or bactericidal)” value ([2]; 0.5×MIC, 24 h) of the same substance?
Answer: bacteriostatic

Question: What about the Viable count ([2]; 0.5×MIC, 24 h) of the same substance?
Answer: 1.2 ± 0.23 1 × 10^5 CFU/ml

Question: And the Viable count ([2]; 1 × MIC, 0 h)?
Answer: 5.3 ± 0.10 1 × 10^5 CFU/ml

Question: And the Viable count ([2]; 1 × MIC, 1 h)?
Answer: 3.7 ± 0.43 1 × 10^5 CFU/ml

Question: And the Viable count ([2]; 1 × MIC, 2 h)?
Answer: 1.6 ± 0.48 1 × 10^5 CFU/ml

Question: What about the Viable count ([2]; 1 × MIC, 3 h) of the same substance?
Answer: 0.7 ± 0.15 1 × 10^5 CFU/ml

Question: What about the Viable count ([2]; 1 × MIC, 4 h) of the same substance?
Answer: 0.3 ± 0.15 1 × 10^5 CFU/ml

Question: What about the Viable count ([2]; 1 × MIC, 5 h) of the same substance?
Answer: 0.2 ± 0.00 1 × 10^5 CFU/ml

Question: And the Viable count ([2]; 1 × MIC, 12 h)?
Answer: 0 1 × 10^5 CFU/ml

Question: And the Viable count ([2]; 1 × MIC, 24 h)?
Answer: 0 1 × 10^5 CFU/ml

Question: And the “Time to bacteriostatic activity” value ([2]; 1×MIC (3.13 μg/ml))?
Answer: ≤ 12 h

Question: What about the Viable count ([2]; 5 × MIC, 0 h) of the same substance?
Answer: 5.6 ± 0.30 1 × 10^5 CFU/ml

Question: And the Viable count ([2]; 5 × MIC, 1 h)?
Answer: 0.8 ± 0.13 1 × 10^5 CFU/ml

Question: And the Viable count ([2]; 5 × MIC, 2 h)?
Answer: 0.4 ± 0.08 1 × 10^5 CFU/ml

Question: And the Viable count ([2]; 5 × MIC, 3 h)?
Answer: 0 1 × 10^5 CFU/ml

Question: And the Viable count ([2]; 5 × MIC, 4 h)?
Answer: 0 1 × 10^5 CFU/ml

Question: What about the Viable count ([2]; 5 × MIC, 5 h) of the same substance?
Answer: 0 1 × 10^5 CFU/ml

Question: What about the Viable count ([2]; 5 × MIC, 12 h) of the same substance?
Answer: 0 1 × 10^5 CFU/ml

Question: And the Viable count ([2]; 5 × MIC, 24 h)?
Answer: 0 1 × 10^5 CFU/ml

Question: What about the “Time to bacteriostatic activity” value ([2]; 5×MIC (15.6 μg/ml)) of the same substance?
Answer: ≤ 2 h
